According to patent publication US10875855B2 (priority 2011, dated 2020):
Where two headings read alike, the source gives them in different places.

What was measured:
[1] = system: influenza A virus (A/PR/8/34); test: microbe, parasite or virus in culture; assay type: cell-based; conditions: mean all, class symbol; for EC50: viral RNA 50% of control wells, read-out: bDNA EC50; for EC99: read-out: bDNA EC99
[2] = system: influenza A virus (A/PR/8/34); test: MDCK cytopathic effect (CPE) cell protection assay, ATP detection; assay type: cell-based
[3] = Table 1, MDCK cells, A/PR/8/34, 72 hours, 50% cell protection, mean all, class symbol, read-out: MDCK IC50
[4] = Influenza A virus, PR/8, Table 1
[5] = Influenza A virus, PR/8, MDCK, 72 h, Table 1, MDCK cells, A/PR/8/34, 72 hours, 50% cell protection, mean all, class symbol, read-out: MDCK IC50
[6] = Influenza A virus, PR/8, MDCK, Table 2, class symbol in brackets, read-out: MDCK cell IC50 (uM), class
[7] = Influenza A virus, PR/8, MDCK, Table 2, comparison compounds of WO2005/095400, mean value, read-out: MDCK cell IC50

SMILES	EC99 [1, 4] [µM]	EC50 [1, 4] [µM]	IC50 [2, 5] [µM]	also measured
CC1([C@@H](CC(=O)O)Nc2nc(-c3c[nH]c4ncc(F)cc34)c(C#N)cc2F)CCCC1 [Compound 8, (R)-3-(5-cyano-3-fluoro-6-(5-fluoro-1H-pyrrolo[2,3-b]pyridin-3-yl)pyridin-2-ylamino)-3-(1-methylcyclopentyl)propanoic acid]				EC50 ([1]; Table 1): < 0.3 µM; IC50 [2, 3]: < 0.3 µM
CC(C)(C)[C@H](CC(=O)O)Nc1nc(-c2c[nH]c3ncc(Cl)cc23)ncc1F [Compound 3, (S)-3-((2-(5-chloro-1H-pyrrolo[2,3-b]pyridin-3-yl)-5-fluoropyrimidin-4-yl)amino)-4,4-dimethylpentanoic acid]	> 3.3	0.3 to 3.3	0.3 to 3.3	
CC1([C@@H](CC(=O)O)Nc2nc(-c3c[nH]c4ncc(F)cc34)ncc2F)CCC1 [Compound 87, 3-((5-fluoro-2-(5-fluoro-1H-pyrrolo[2,3-b]pyridin-3-yl)pyrimidin-4-yl)amino)-3-(1-methylcyclobutyl)propanoic acid]	< 0.3	< 0.3	< 0.3	
CC(C)(C)[C@@H](Cn1cc(CO)nn1)Nc1nc(-c2c[nH]c3ncc(F)cc23)ncc1F [Compound 68, (S)-(1-(2-((5-fluoro-2-(5-fluoro-1H-pyrrolo[2,3-b]pyridin-3-yl)pyrimidin-4-yl)amino)-3,3-dimethylbutyl)-1H-1,2,3-triazol-4-yl)methanol]	0.3 to 3.3	< 0.3	0.3 to 3.3	
CC(C)(C)[C@@H](CC(=O)O)Nc1nc(-c2c[nH]c3ncc(F)cc23)c(C#N)cc1F [Compound 7, (R)-3-(5-cyano-3-fluoro-6-(5-fluoro-1H-pyrrolo[2,3-b]pyridin-3-yl)pyridin-2-ylamino)-4,4-dimethylpentanoic acid]	< 0.3	< 0.3	< 0.3	
COCCNS(=O)(=O)C[C@@H](Nc1nc(-c2c[nH]c3ncc(F)cc23)ncc1F)C(C)(C)C [Compound 35, (S)-2-(5-Fluoro-2-(5-fluoro-1H-pyrrolo[2,3-b]pyridin-3-yl)pyrimidin-4-ylamino)-N-(2-methoxyethyl)-3,3-dimethylbutane-1-sulfonamide]	0.3 to 3.3	< 0.3	< 0.3	
CCC(C)(C)C(CC(=O)O)Nc1nc(-c2c[nH]c3ncc(F)cc23)ncc1F (centres unmarked) [Compound 17, 3-((5-fluoro-2-(5-fluoro-1H-pyrrolo[2,3-b]pyridin-3-yl)pyrimidin-4-yl)amino)-4,4-dimethylhexanoic acid]				bDNA EC99 (uM) ([1]; Table 1): C (EC99 (mean all)>3.3 μM); EC50 ([1]; Table 1): 0.3 to 3.3 µM; IC50 [2, 3]: 0.3 to 3.3 µM
CC(C)(C)[C@@H](CC(=O)O)Nc1ccnc(-c2c[nH]c3ncc(F)cc23)n1 [Compound 47, (R)-3-((2-(5-fluoro-1H-pyrrolo[2,3-b]pyridin-3-yl)pyrimidin-4-yl)amino)-4,4-dimethylpentanoic acid]	0.3 to 3.3	< 0.3	< 0.3	
CC(C)(C)N(CC(=O)O)Nc1nc(-c2c[nH]c3ncc(C(F)(F)F)cc23)ncc1F [Compound 54, 2-(1-(tert-butyl)-2-(5-fluoro-2-(5-(trifluoromethyl)-1H-pyrrolo[2,3-b]pyridin-3-yl)pyrimidin-4-yl)hydrazinyl)acetic acid]	0.3 to 3.3	< 0.3	< 0.3	
CC(C)(C)C(CC(=O)O)Nc1nc(-c2c[nH]c3ncc(F)cc23)ncc1Cl (racemic) [Compound 85, (+/−)-3-((5-chloro-2-(5-fluoro-1H-pyrrolo[2,3-b]pyridin-3-yl)pyrimidin-4-yl)amino)-4,4-dimethylpentanoic acid]	> 3.3	< 0.3	0.3 to 3.3	
Clc1cnc2[nH]cc(-c3cccc(NCC4CCCNC4)n3)c2c1 (centres unmarked) [Compound C2, reference compound]				IC50 [2, 6]: > 3.3 µM; IC50 [2, 7]: > 20 µM
CC(C)(C)[C@@H](CC(=O)O)Nc1nc(-c2n[nH]c3ncc(Cl)cc23)ncc1F [Compound 97, (R)-3-((2-(5-chloro-1H-pyrazolo[3,4-b]pyridin-3-yl)-5-fluoropyrimidin-4-yl)amino)-4,4-dimethylpentanoic acid]	< 0.3	< 0.3	< 0.3	
CC(CF)(CF)C(CC(=O)O)Nc1nc(-c2c[nH]c3ncc(F)cc23)ncc1F (racemic) [Compound 84, (+/−)-5-Fluoro-3-((5-fluoro-2-(5-fluoro-1H-pyrrolo[2,3-b]pyridin-3-yl)pyrimidin-4-yl)amino)-4-(fluoromethyl)-4-methylpentanoic acid]	> 3.3	0.3 to 3.3	0.3 to 3.3	
CCOC(=O)CC(Nc1nc(-c2c[nH]c3ncc(F)cc23)ncc1F)C1(C)CCCCC1 (racemic) [Compound 77, (+/−)-ethyl 3-(5-fluoro-2-(5-fluoro-1H-pyrrolo[2,3-b]pyridin-3-yl)pyrimidin-4-ylamino)-3-(1-methylcyclohexyl)propanoate]	> 3.3	0.3 to 3.3	> 3.3	
CC(C)(C)C(Nc1nc(-c2c[nH]c3ncc(F)cc23)ncc1F)C1CC1C(=O)O (single isomer, unassigned) [Compound 51, 2-(1-((5-fluoro-2-(5-fluoro-1H-pyrrolo[2,3-b]pyridin-3-yl)pyrimidin-4-yl)amino)-2,2-dimethylpropyl)cyclopropanecarboxylic acid]		< 0.3	< 0.3	bDNA EC99 (uM) ([1]; Table 1): C (EC99 (mean all)>3.3 μM)
CC(C)(C)[C@@H](CS(=O)(=O)NC1CC1)Nc1nc(-c2c[nH]c3ncc(F)cc23)ncc1F [Compound 21, (S)—N-Cyclopropyl-2-(5-fluoro-2-(5-fluoro-1H-pyrrolo[2,3-b]pyridin-3-yl)pyrimidin-4-ylamino)-3,3-dimethylbutane-1-sulfonamide]	< 0.3	< 0.3	< 0.3	
CC1(C(CC(=O)O)Nc2nc(-c3c[nH]c4ncc(F)cc34)ncc2F)CCC1 (centres unmarked) [Compound 63]	< 0.3	< 0.3	< 0.3	
CC(C)(C)[C@@H](CC(O)C(F)(F)F)Nc1nc(-c2c[nH]c3ncc(F)cc23)ncc1F (stereo partly drawn) [Compound 67, (4R)-1,1,1-trifluoro-4-((5-fluoro-2-(5-fluoro-1H-pyrrolo[2,3-b]pyridin-3-yl)pyrimidin-4-yl)amino)-5,5-dimethylhexan-2-ol]				EC50 ([1]; Table 1): < 0.3 µM; IC50 [2, 3]: < 0.3 µM
CC(C)(C)[C@@H](CS(=O)(=O)NC1CC1)Nc1nc(-c2c[nH]c3ncc(F)cc23)c(C#N)cc1F [Compound 28, (S)-2-(5-Cyano-3-fluoro-6-(5-fluoro-1H-pyrrolo[2,3-b]pyridin-3-yl)pyridin-2ylamino)-N-cyclopropyl-3,3-dimethylbutane-1-sulfonamide]	< 0.3	< 0.3		
CC(C)(C)C(Cc1nc(=O)o[nH]1)Nc1nc(-c2c[nH]c3ncc(F)cc23)ncc1F (racemic) [Compound 65, (+/−)-3-(2-((5-fluoro-2-(5-fluoro-1H-pyrrolo[2,3-b]pyridin-3-yl)pyrimidin-4-yl)amino)-3,3-dimethylbutyl)-1,2,4-oxadiazol-5(2H)-one]	0.3 to 3.3	< 0.3	< 0.3	
CCCNS(=O)(=O)C[C@@H](Nc1nc(-c2c[nH]c3ncc(F)cc23)c(C#N)cc1F)C(C)(C)C [Compound 31, (S)-2-((5-cyano-3-fluoro-6-(5-fluoro-1H-pyrrolo[2,3-b]pyridin-3-yl)pyridin-2-yl)amino)-3,3-dimethyl-N-propylbutane-1-sulfonamide]	< 0.3	< 0.3		
CC(O)C[C@@H](Nc1nc(-c2c[nH]c3ncc(F)cc23)ncc1F)C(C)(C)C (stereo partly drawn) [Compound 72, (4R)-4-((5-Fluoro-2-(5-fluoro-1H-pyrrolo[2,3-b]pyridin-3-yl)pyrimidin-4-yl)amino)-5,5-dimethylhexan-2-ol]	> 3.3			
CC(C)(C)[C@@H](CS(N)(=O)=O)Nc1nc(-c2c[nH]c3ncc(F)cc23)c(C#N)cc1F [Compound 30, (S)-2-((5-cyano-3-fluoro-6-(5-fluoro-1H-pyrrolo[2,3-b]pyridin-3-yl)pyridin-2-yl)amino)-3,3-dimethylbutane-1-sulfonamide]	< 0.3	< 0.3		
Clc1cnc2[nH]cc(-c3cccc(NC4CCCCC4)n3)c2c1 [Compound C1, reference compound]				IC50 [2, 6]: > 3.3 µM; IC50 [2, 7]: > 20 µM
CNS(=O)(=O)C[C@@H](Nc1nc(-c2c[nH]c3ncc(F)cc23)c(C#N)cc1F)C(C)(C)C [Compound 26, (S)-2-(5-Cyano-3-fluoro-6-(5-fluoro-1H-pyrrolo[2,3-b]pyridin-3-yl)pyridin-2ylamino)-N,3,3-trimethylbutane-1-sulfonamide]	< 0.3	< 0.3		
CC(C)(C)C(C[S@+]([O-])CC(=O)O)Nc1nc(-c2c[nH]c3ncc(F)cc23)ncc1F (stereo partly drawn) [Compound 64, 2-((S)-2-(5-fluoro-2-(5-fluoro-1H-pyrrolo[2,3-b]pyridin-3-yl)pyrimidin-4-ylamino)-3,3-dimethylbutylsulfinyl)ethanoic acid]	> 3.3	< 0.3		
CN(C)S(=O)(=O)C[C@@H](Nc1nc(-c2c[nH]c3ncc(F)cc23)c(C#N)cc1F)C(C)(C)C [Compound 27, (S)-2-(5-Cyano-3-fluoro-6-(5-fluoro-1H-pyrrolo[2,3-b]pyridin-3-yl)pyridin-2ylamino)-N,N,3,3-tetramethylbutane-1-sulfonamide]	0.3 to 3.3	< 0.3		
COCCNS(=O)(=O)C[C@@H](Nc1nc(-c2c[nH]c3ncc(F)cc23)c(C#N)cc1F)C(C)(C)C [Compound 29, (S)-2-((5-cyano-3-fluoro-6-(5-fluoro-1H-pyrrolo[2,3-b]pyridin-3-yl)pyridin-2-yl)amino)-N-(2-methoxyethyl)-3,3-dimethylbutane-1-sulfonamide]	0.3 to 3.3	< 0.3		
